This note sets out measurements from US20200207835A1, “SRCP1-BASED THERAPY FOR DISEASES ASSOCIATED WITH PROTEIN AGGREGATION” (THE MEDICAL COLLEGE OF WISCONSIN, INC., priority 2017, published 2020).

Read-outs that look alike come from different tables or passages of the source. Residues, ends and D or L forms follow the SMILES beside them. *: point of attachment. Cbz = O=C(OCc1ccccc1)*

The subject of assay [1] is ^GFPHtt^ex1Q74. Briefly: GFPHttex1Q74 aggregation in transfected HEK293 cells (fluorescent/confocal microscopy, western blot, filter trap assay). The class given is cell-based, human. Conditions: HEK293, 10 μM MG132 for 18 hours, absence of RFPSRCP1. As to the method:
Transfections were performed with Lipofectamine 2000 (Invitrogen by ThermoFisher Scientific) and adapted from the manufacturer's instructions. Briefly, cells were plated on either 12-well or 6-well plates and transfected at 50-70% confluency. For 12-well transfections, 0.833 μg of DNA per well was mixed with 50 μl of OptiMEM (Gibco by Life Technologies) media and incubated for 5 minutes at room temperature. Lipofectamine 2000 in a 2:1, μl of lipofectamine: μg DNA ratio was mixed with 50 μl of OptiMEM media and incubated for 5 minutes at room temperature. DNA and Lipofectamine were mixed and incubated for 15 minutes at room temperature. Fresh media was added to cells prior to the addition of DNA and lipofectamine. For 6-well transfections, the same protocol is followed except that 1.25 μg of DNA per well and 100 μl of OptiMEM for dilution was used. Media was changed 24 hours post-transfection and cells were harvested 48 hours post-transfection. Prior to harvesting, HEK293 cells were washed three times with ice-cold 1×PBS. Samples were then lysed with either 150 μl of ice-cold NETN (with protease inhibitor) or 1× Laemmli Buffer and sonicated twice for 5-8 seconds.
For proteasome inhibition, 30 hours post-transfection cells would be replenished with DMEM containing either DMSO or 10 μM MG132 (Sigma-Aldrich) for 18 hours. Prior to harvesting, HEK293 cells were washed three times with ice-cold 1×PBS and imaged by fluorescent microscopy with a 20× objective using the Evos FL Auto Imaging System. Cells were then lysed with either 150 μl of ice-cold NETN (with protease inhibitor) or 1× Laemmli Buffer and sonicated twice for 5-8 seconds.
For autophagy inhibition, 24 hours post-transfection cells would be replenished with DMEM and treated with either DMSO or 5 mM 3-Methyladenine (Sigma-Aldrich) for an additional 24 hours. Prior to harvesting, HEK293 cells were washed three times with ice-cold 1×PBS and imaged by fluorescent microscopy with a 20× objective using the Evos FL Auto Imaging System. Cells were then lysed with either 150 μl of ice-cold NETN (with protease inhibitor) or 1× Laemmli Buffer and sonicated twice for 5-8 seconds.
For HEK293s′, slides were prepared by placing coverslips in 6-well plates and incubating with poly-L-lysine hydrobromide (Sigma-Aldrich) for an hour at room temperature. Coverslips were rinsed with 1×PBS three times prior to plating HEK293 cells. HEK293 cells were then transfected and fixed by incubation in 4% paraformaldehyde for 20 minutes at room temperature. Coverslips were mounted with ProLong Gold Antifade reagent and imaged with a 20× objective using the Evos FL Auto Imaging System or with a 40× objective using the Leica TCS SP5 Confocal Microscope System. For confocal, Z-stack images were obtained at […] intervals at 1024×1024 pixel resolution and merged using Fiji.
(§1) Following sonication, lysates were subjected to BCA protein assay (ThermoFisher Scientific) and prepared for loading by the addition of 4× laemmli buffer and boiling for four minutes. Samples then loaded on SDS-polyacrylamide gels, ran at 175 V, and transferred onto an Immuno-blot PVDF membrane (Biorad) overnight at 30 V. Membranes were blocked in 5% milk in TBS with 0.1% Tween (TBST) and incubated in primary antibody overnight at 4° C. Following primary, membranes were washed for 10 minutes at room temperature three times with TBST and incubated in secondary for an hour at room temperature. Membranes were then washed for 10 minutes at room temperature three times with TBST and then incubated in buffer for enhanced chemiluminescence (50 mM Na2HPO4; 50 mM Na2CO3; 10 mM NaBO3.4H2O; 250 mM luminol; 90 mM coumaric acid).
For HEK293 lysates, BCA protein assay was used to determine protein concentration. […]
(In general: Immunoblotting shows a protein as a band on a membrane.)

Assay [2] deals with ubiquitinated species. In words: Western blot for ubiquitin after proteasome inhibition in Dictyostelium. The class given is cell-based, Dictyostelium discoideum. Conditions: increasing concentrations of MG132, 18 hours. As for the experimental part:
Following treatment, cells were imaged and/or harvested by spinning at 500 g at room temperature for 5 minutes. Cell pellets were washed three times with 1×PBS and lysed with ice-cold NETN (with protease inhibitor). Lysates were then sonicated twice for 10-15 seconds. To verify inhibition, samples were run on SDS-PAGE and analyzed by western blot for ubiquitin.
as §1

The subject of assay [3] is ^GFPHtt^ex1Q103. The class given is cell-based, Dictyostelium discoideum. Conditions: Dictyostelium. As to the method: For proteasome inhibition, 5×10^6 cells were incubated with either DMSO or 100 μM MG132 (Sigma-Aldrich) for 18 hours. Following treatment, cells were imaged and/or harvested by spinning at 500 g at room temperature for 5 minutes. Cell pellets were washed three times with 1×PBS and lysed with ice-cold NETN (with protease inhibitor). Lysates were then sonicated twice for 10-15 seconds. To verify inhibition, samples were run on SDS-PAGE and analyzed by western blot for ubiquitin.
For Hsp70 inhibition, 1×10^7 cells were incubated either with DMSO or 80 μM VER155008 (ApexBio) for 24 hours. Following treatments, cells were imaged and/or harvested by spinning at 500 g at room temperature for 5 minutes. Cell pellets were washed three times with 1×PBS and lysed with ice-cold NETN (with protease inhibitor). Lysates were then sonicated twice for 10-15 seconds. To verify inhibition, samples were run on SDS-PAGE and analyzed by western blot for ATG8.
For Dictyostelium cells, 1×10^7 cells were washed three times with ice-cold starvation buffer and then imaged with a 20× objective using the Evos FL Auto Imaging System.

Assay [4] has as its system ATG8. Conditions: 150 mM NH4Cl, 8 hours.
Experimental: For autophagy inhibition, 1×10^7 cells were incubated either with vehicle or 150 μM NH4Cl (Sigma-Aldrich) for 8 hours. Following treatments, cells were imaged by fluorescent microscopy and plated on coverslips at a density of 2×10^6 cells per ml and allowing cells to adhere. Cells were then washed three times with 1×PBS and fixed with 100% ice-cold methanol at −20° C. for 10 minutes. Methanol was aspirated and cells were washed twice with 1×PBT (0.1% Triton X, 0.5% BSA in 1×PBS), incubated in blocking buffer (1% Triton X, 2% BSA in 1×PBT) for 30 minutes at room temperature, and put in primary Rb anti ATG8a (courtesy of Jason King, University of Sheffield) (1:5000) overnight at 4° C. Following primary cells were washed three times with 1×PBT and incubated in secondary goat anti rabbit (Jackson ImmunoResearch Laboratories; 711-166-152) for 2 hours at room temperature. Following secondary, cells were washed an additional three times with 1×PBT and mounted on slides with ProLong Gold Antifade reagent (Invitrogen by ThermoFisher Scientific). Slides were imaged with a Nikon eclipse 90i confocal microscope.
Assay [5] relates to ATG8. Briefly: Western blot for ATG8 after Hsp70 inhibition in Dictyostelium. The class given is cell-based, Dictyostelium discoideum. Conditions: 80 μM Ver155008, 24 hours. As for the experimental part: as §1, with “For Hsp70 inhibition, 1×10^7 cells were incubated either with DMSO or 80 μM VER155008 (ApexBio) for 24 hours. Following treatments, cells were imaged and/or harvested by spinning at 500 g at room temperature for 5 minutes. Cell pellets were washed three times with 1×PBS and lysed with ice-cold NETN (with protease inhibitor). Lysates were then sonicated twice for 10-15 seconds. To verify inhibition, samples were run on SDS-PAGE and analyzed by western blot for ATG8. Following sonication,” for “Following sonication,”

For the molecule `CC(C)C[C@@H](C=O)NC(=O)[C@H](CC(C)C)NC(=O)[C@H](CC(C)C)NC(=O)OCc1ccccc1` [MG132, reference compound] (Cbz-Leu-Leu-Leu-aldehyde), in assay [1], the “insoluble GFPHttex1Q74” value is “increased in both the insoluble and soluble fraction”; the “soluble GFPHttex1Q74” value is “increased in both the insoluble and soluble fraction”. Besides, the “accumulation of ubiquitinated species” value in assay [2] is reported as “leads to an accumulation of ubiquitinated species”. Moreover, the “accumulation of aggregated GFPHttex1Q103” value in assay [3] (100 μM MG132, 18 hours) is listed as “does not result in an accumulation of aggregated”.
For the molecule `Cl.N` [NH4Cl], the “accumulation of aggregated GFPHttex1Q103” value in assay [3] (150 mM NH4Cl, 8 hours) is given as “does not lead to accumulation of aggregated”. In addition, the ATG8 puncta result in assay [4] is “leads to an accumulation of large ATG8 puncta”.
Consider `N#Cc1ccc(COC[C@H]2O[C@@H](n3c(NCc4ccc(Cl)c(Cl)c4)nc4c(N)ncnc43)[C@H](O)[C@@H]2O)cc1` [VER-155008], for which the ATG8 protein levels entry in assay [5] is recorded as “leads to an increase of ATG8 proteins levels”. Further, the “accumulation of aggregated GFPHttex1Q103” value in assay [3] (80 μM VER-155008, 24 hours) is reported as “does not lead to accumulation of aggregated”.
